Results reported in patent publication EP3807270B1, “NOVEL HETEROARYL HETEROCYCLYL COMPOUNDS FOR THE TREATMENT OF AUTOIMMUNE DISEASE” (F. Hoffmann-La Roche AG, priority 2018, dated 2019).

Molecular target: T1, hTLR9 (Homo sapiens, UniProt Q9NR96)
T1 sequence (Q9NR96 26-1032): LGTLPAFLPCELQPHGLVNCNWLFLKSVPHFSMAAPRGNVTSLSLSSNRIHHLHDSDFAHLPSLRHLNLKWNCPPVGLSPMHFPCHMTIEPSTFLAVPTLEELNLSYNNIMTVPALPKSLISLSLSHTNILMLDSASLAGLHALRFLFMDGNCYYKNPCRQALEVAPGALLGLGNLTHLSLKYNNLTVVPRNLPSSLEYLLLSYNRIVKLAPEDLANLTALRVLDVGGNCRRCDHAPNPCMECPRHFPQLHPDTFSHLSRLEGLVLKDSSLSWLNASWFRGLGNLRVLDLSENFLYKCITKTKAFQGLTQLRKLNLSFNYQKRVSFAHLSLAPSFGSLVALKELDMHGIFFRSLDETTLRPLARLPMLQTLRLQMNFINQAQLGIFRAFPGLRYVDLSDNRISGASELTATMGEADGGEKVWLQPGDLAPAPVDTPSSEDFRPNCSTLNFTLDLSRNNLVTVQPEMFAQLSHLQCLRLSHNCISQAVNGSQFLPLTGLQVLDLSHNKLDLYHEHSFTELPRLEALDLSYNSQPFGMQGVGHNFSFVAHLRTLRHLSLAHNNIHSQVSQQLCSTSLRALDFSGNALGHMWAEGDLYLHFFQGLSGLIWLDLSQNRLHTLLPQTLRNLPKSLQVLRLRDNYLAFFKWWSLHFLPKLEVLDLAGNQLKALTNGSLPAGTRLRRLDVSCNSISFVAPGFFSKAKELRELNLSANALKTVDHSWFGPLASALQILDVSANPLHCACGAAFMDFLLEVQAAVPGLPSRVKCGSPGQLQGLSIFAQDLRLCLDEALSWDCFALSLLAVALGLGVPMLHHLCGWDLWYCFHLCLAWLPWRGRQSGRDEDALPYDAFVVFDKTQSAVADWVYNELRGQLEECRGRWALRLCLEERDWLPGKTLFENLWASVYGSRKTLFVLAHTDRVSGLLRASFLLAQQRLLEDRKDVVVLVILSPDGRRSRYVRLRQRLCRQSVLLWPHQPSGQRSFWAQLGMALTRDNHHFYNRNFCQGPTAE
Assay: HEK293-Blue-hTLR-9 cells assay (SEAP reporter, ODN2006 stimulation)
Assay type: cell-based
Parameters: host or cells: HEK293 (HEK-Blue)
Conditions: HEK293-Blue-hTLR9 cells, ODN2006, 20 hrs; read-out: HEK/hTLR9 IC50
Description: A stable HEK293-Blue-hTLR-9 cell line was purchased from InvivoGen (Cat.#: hkb-htlr9, San Diego, California, USA). These cells were originally designed for studying the stimulation of human TLR9 by monitoring the activation of NF-κB. A SEAP (secreted embryonic alkaline phosphatase) reporter gene was placed under the control of the IFN-β minimal promoter fused to five NF-κB and AP-1-binding sites. The SEAP was induced by activating NF-κB and AP-1 via stimulating HEK-Blue hTLR9 cells with TLR9 ligands. Therefore, the reporter expression was declined by TLR9 antagonist under the stimulation of a ligand, such as ODN2006 (Cat.#: tlrl-2006-1, Invivogen, San Diego, California, USA), for incubation of 20 hrs. The cell culture supernatant SEAP reporter activity was determined using QUANTI-Blue™ kit (Cat.#: rep-qb 1, Invivogen, San Diego, California, USA) at a wavelength of 640 nm, a detection medium that turns purple or blue in the presence of alkaline phosphatase.
HEK293-Blue-hTLR9 cells were incubated at a density of 250,000-450,000 cells/mL in a volume of 170 µL in a 96-well plate in Dulbecco's Modified Eagle's medium (DMEM) containing 4.5 g/L glucose, 50 U/mL penicillin, […], […], 2 mM L-glutamine, 10% (v/v) heat-inactivated fetal bovine serum with addition of 20 µL test compound in a serial dilution in the presence of final DMSO at 1% and 10 µL of 20uM ODN2006 in above DMEM, perform incubation under 37 °C in a CO2 incubator for 20 hrs. Then 20 µL of the supernatant from each well was incubated with 180 µL Quanti-blue substrate solution at 37 °C for 2 hrs and the absorbance was read at 620-655 nm using a spectrophotometer. The signaling pathway that TLR9 activation leads to downstream NF-κB activation has been widely accepted, and therefore similar reporter assay was modified for evaluating TLR9 antagonist.

C[C@@H]1CN(c2ccc(C#N)c3ncccc23)C[C@H](CN2CCN(c3ncc4c(n3)CNC4)CC2)O1 [Example 11, 5-[(2S,6R)-2-[[4-(6,7-dihydro-5Hpyrrolo[3,4-d]pyrimidin-2-yl)piperazin-1-yl]methyl]-6-methyl-morpholin-4-yl]quinoline-8-carbonitrile] showed an IC50 of 252 nM.
Compound C[C@@H]1CN(c2ccc(C#N)c3ncccc23)C[C@H](CN2CCN(c3ncc4c(n3)CNCC4)CC2)O1 [Example 12, 5-[(2R,6S)-2-methyl-6-[[4-(5,6,7,8-tetrahydropyrido[3,4-d]pyrimidin-2-yl)piperazin-1-yl]methyl]morpholin-4-yl]quinoline-8-carbonitrile] has an IC50 of 143 nM.
With C[C@@H]1CN(c2ccc(C#N)c3ncccc23)C[C@H](CN2CCN(c3ccc4c(c3)CNC4)C(CO)C2)O1 (stereo partly drawn) [Example 13, 5-[(2S,6R)-2-[[3-(hydroxymethyl)-4-isoindolin-5-yl-piperazin-1-yl]methyl]-6-methyl-morpholin-4-yl]quinoline-8-carbonitrile] the IC50 was 109 nM.
C[C@@H]1CN(c2ccc(C#N)c3ncccc23)C[C@H](CN2CCN(c3ccc4c(n3)CCNC4)CC2)O1 [Example 14, 5-[(2R,6S)-2-methyl-6-[[4-(5,6,7,8-tetrahydro-1,6-naphthyridin-2-yl)piperazin-1-yl]methyl]morpholin-4-yl]quinoline-8-carbonitrile] showed an IC50 of 58 nM.
C[C@@H]1CN(c2ccc(C#N)c3ncccc23)C[C@H](CN2CCN(c3ccc4c(c3)CNC4)CC2CO)O1 (stereo partly drawn) [Example 15, 5-[(2S,6R)-2-[[2-(hydroxymethyl)-4-isoindolin-5-yl-piperazin-1-yl]methyl]-6-methyl-morpholin-4-yl]quinoline-8-carbonitrile] was tested, and the IC50 was 97 nM.
For C[C@@H]1CN(c2ccc(C#N)c3ncccc23)C[C@H](CN2CCN(c3ccc4c(c3)CN(CCO)C4)CC2)O1 [Example 16, 5-[(2S,6R)-2-[[4-[2-(2-hydroxyethyl)isoindolin-5-yl]piperazin-1-yl]methyl]-6-methyl-morpholin-4-yl]quinoline-8-carbonitrile], the IC50 was 91 nM.
In the case of C[C@@H]1CN(c2ccc(C#N)c3ncccc23)C[C@H](CN2CCN(c3cnc4c(n3)CCNC4)CC2)O1 [Example 17, 5-[(2R,6S)-2-methyl-6-[[4-(5,6,7,8-tetrahydropyrido[3,4-b]pyrazin-2-yl)piperazin-1-yl]methyl]morpholin-4-yl]quinoline-8-carbonitrile], the IC50 is reported as 98 nM.
C[C@@H]1CN(c2ccc(C#N)c3ncccc23)C[C@H](CN2CCN(c3cc4c(cn3)CNC4)CC2)O1 [Example 18, 5-[(2S,6R)-2-[[4-(2,3-dihydro-1H-pyrrolo[3,4-c]pyridin-6-yl)piperazin-1-yl]methyl]-6-methyl-morpholin-4-yl] quinoline-8-carbonitrile] showed an IC50 of 98 nM.
In the case of C[C@@H]1CN(c2ccc(C#N)c3ncccc23)C[C@H](CN2CCN(c3cc4c(cn3)CNCC4)CC2)O1 [Example 19, 5-[(2R,6S)-2-methyl-6-[[4-(5,6,7,8-tetrahydro-2,7-naphthyridin-3-yl)piperazin-1-yl]methyl]morpholin-4-yl]quinoline-8-carbonitrile], the IC50 is reported as 63 nM.
With C[C@@H]1CN(c2ccc(C#N)c3ncccc23)C[C@H](CN2CCN(c3cc4c(cn3)CCNC4)CC2)O1 [Example 20, 5-[(2R,6S)-2-methyl-6-[[4-(5,6,7,8-tetrahydro-2,6-naphthyridin-3-yl)piperazin-1-yl]methyl]morpholin-4-yl]quinoline-8-carbonitrile] the IC50 was 72 nM.
Compound C[C@@H]1CN(c2ccc(C#N)c3ncccc23)C[C@H](CN2CCN(c3cnc4c(c3)CNCC4)CC2)O1 [Example 21, 5-[(2R,6S)-2-methyl-6-[[4-(5,6,7,8-tetrahydro-1,6-naphthyridin-3-yl)piperazin-1-yl]methyl]morpholin-4-yl]quinoline-8-carbonitrile] has an IC50 of 52 nM.
Work on C[C@@H]1CN(c2ccc(C#N)c3ncccc23)C[C@H](CN2CCN(c3ccc4c(c3)C(O)CNC4)CC2)O1 (stereo partly drawn) [Example 22, 5-[(2S,6R)-2-[[4-(4-hydroxy-1,2,3,4-tetrahydroisoquinolin-6-yl)piperazin-1-yl]methyl]-6-methyl-morpholin-4-yl]quinoline-8-carbonitrile] yielded an IC50 of 45 nM.
